Assay results as given in PubChem BioAssay AID328 (DTP/NCI, 2004).
Values joined by “and” are separate entries in the source; they are usually repeats but may differ in a detail not shown here. Equal values may be shown once. Toxic doses and inconclusive results are not listed.

System: BDF1 mice, P388 leukemia ip, median survival T/C
Assay: NCI In Vivo Anticancer Drug Screen. Data for tumor model P388 Leukemia (intraperitoneal) in B6D2F1 (BDF1) mice
Conditions: endpoint: median survival time, higher = longer survival
Method in brief: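 Transplantable tumour in mice; compound vs vehicle dosing; survival scored; ratio of treated to control reported.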

[1] = dose: 100.0 mg/kg/injection, schedule: Q04DX003 (ip), vehicle: Klucel (hydroxypropylcellulose) (HPC)
[2] = dose: 200.0 mg/kg/injection, schedule: Q04DX003 (ip), vehicle: Klucel (hydroxypropylcellulose) (HPC)
[3] = dose: 100.0 mg/kg/injection, schedule: Q01DX009 (ip), vehicle: saline with Tween-80
[4] = dose: 100.0 mg/kg/injection, schedule: Q04DX003 (ip), vehicle: saline with Tween-80
[5] = dose: 200.0 mg/kg/injection, schedule: Q01DX009 (ip), vehicle: saline with Tween-80
[6] = dose: 200.0 mg/kg/injection, schedule: Q04DX003 (ip), vehicle: saline with Tween-80
[7] = dose: 400.0 mg/kg/injection, schedule: Q01DX009 (ip), vehicle: saline with Tween-80
[8] = dose: 400.0 mg/kg/injection, schedule: Q04DX003 (ip), vehicle: saline with Tween-80
[9] = dose: 50.0 mg/kg/injection, schedule: Q01DX009 (ip), vehicle: saline with Tween-80
[10] = dose: 12.5 mg/kg/injection, schedule: Q01DX009 (ip), vehicle: saline
[11] = dose: 25.0 mg/kg/injection, schedule: Q01DX009 (ip), vehicle: saline
[12] = dose: 50.0 mg/kg/injection, schedule: Q01DX009 (ip), vehicle: saline
[13] = dose: 100.0 mg/kg/injection, schedule: Q01DX009 (ip), vehicle: saline
[14] = dose: 200.0 mg/kg/injection, schedule: Q01DX009 (ip), vehicle: saline
[15] = dose: 50.0 mg/kg/injection, schedule: Q04DX003 (ip), vehicle: saline with Tween-80

## CN1CCN(c2nn3nnnc3c3ccccc23)CC1
dose: 20.0 mg/kg/injection, schedule: Q01DX009 (ip), vehicle: saline with Tween-80
  T/C: 89 % of control
dose: 40.0 mg/kg/injection, schedule: Q01DX009 (ip), vehicle: saline with Tween-80
  T/C: 94 % of control
dose: 80.0 mg/kg/injection, schedule: Q01DX009 (ip), vehicle: saline with Tween-80
  T/C: 93 % of control

## CC(=O)C(C(c1ccccc1)C1CCCc2ccccc21)N1CCOCC1 (configuration not stated)
dose: 100.0 mg/kg/injection, schedule: Q01DX009 (ip), vehicle: Klucel (hydroxypropylcellulose) (HPC)
  T/C: 100 % of control
[1]
  T/C: 105 % of control
dose: 200.0 mg/kg/injection, schedule: Q01DX009 (ip), vehicle: Klucel (hydroxypropylcellulose) (HPC)
  T/C: 109 % of control
[2]
  T/C: 100 % of control
dose: 400.0 mg/kg/injection, schedule: Q01DX009 (ip), vehicle: Klucel (hydroxypropylcellulose) (HPC)
  T/C: 104 % of control
dose: 400.0 mg/kg/injection, schedule: Q04DX003 (ip), vehicle: Klucel (hydroxypropylcellulose) (HPC)
  T/C: 100 % of control

## CN(C)[C@@H]1C(=O)C(C(=O)NCNC(CO)(CO)CO)=C(O)[C@@]2(O)C(=O)C3=C(O)c4c(O)cccc4[C@@](C)(O)[C@H]3C[C@@H]12
dose: 25.0 mg/kg/injection, schedule: Q04DX003 (ip), vehicle: saline
  T/C: 100 % of control
dose: 50.0 mg/kg/injection, schedule: Q04DX003 (ip), vehicle: saline
  T/C: 95 % of control
dose: 100.0 mg/kg/injection, schedule: Q04DX003 (ip), vehicle: saline
  T/C: 90 % of control
dose: 200.0 mg/kg/injection, schedule: Q04DX003 (ip), vehicle: saline
  T/C: 104 % of control

## CC(=S)Nc1ccc2ccccc2c1
[3]
  T/C: 107 % of control
[4]
  T/C: 118 % of control
[5]
  T/C: 107 % of control
[6]
  T/C: 109 % of control
[7]
  T/C: 119 % of control
[8]
  T/C: 122 % of control

## C=CCNC(=S)N/N=C\c1cc(OC)c(OC)c(OC)c1
[9]
  T/C: 95 % of control
[3]
  T/C: 100 % of control
[5]
  T/C: 90 % of control

## CN(C)c1ccc(C=O)cc1[N+](=O)[O-]
dose: 50.0 mg/kg/injection, schedule: Q04DX003 (ip), vehicle: Klucel (hydroxypropylcellulose) (HPC)
  T/C: 113 % of control
[1]
  T/C: 113 % of control
[2]
  T/C: 104 % of control

## Cc1cc(=O)[nH]c(N/N=C/c2ccccc2O)n1
dose: 200.0 mg/kg/injection, schedule: Q01DX010 (ip), vehicle: saline
  T/C: 90 % of control
dose: 300.0 mg/kg/injection, schedule: Q01DX010 (ip), vehicle: saline
  T/C: 95 % of control
dose: 400.0 mg/kg/injection, schedule: Q01DX010 (ip), vehicle: saline
  T/C: 95 % of control
dose: 500.0 mg/kg/injection, schedule: Q01DX010 (ip), vehicle: saline
  T/C: 95 % of control

## CC(=O)OC1CC2(O)C(CCC3(C)C(c4ccc(=O)oc4)CCC32O)C2(C)CCC(OC3OC(CO)C(O)C(O)C3O)C=C12 (configuration not stated)
dose: 125.0 micrograms/kg/injection, schedule: Q01DX010 (ip), vehicle: saline
  T/C: 90 % of control

## NC(=NCCCC(NCc1ccccc1)C(=O)O)N[N+](=O)[O-] (configuration not stated)
dose: 50.0 mg/kg/injection, schedule: Q04DX003 (ip), vehicle: saline + alcohol
  T/C: 103 % of control
dose: 100.0 mg/kg/injection, schedule: Q04DX003 (ip), vehicle: saline + alcohol
  T/C: 99 % of control
dose: 200.0 mg/kg/injection, schedule: Q04DX003 (ip), vehicle: saline + alcohol
  T/C: 94 % of control
dose: 400.0 mg/kg/injection, schedule: Q04DX003 (ip), vehicle: saline + alcohol
  T/C: 105 % of control

## CCCN([Si](C)(C)C)[Si](C)(C)C
[9]
  T/C: 107 % of control
[3]
  T/C: 107 % of control
[4]
  T/C: 100 % of control
[5]
  T/C: 100 % of control
[6]
  T/C: 104 % of control

## O=C(/C=C/c1ccncc1)c1cccc2ccccc12
[10]
  T/C: 102 % of control
[11]
  T/C: 108 % of control
[12]
  T/C: 100 % of control
[13]
  T/C: 116 % of control

## CC(O)(c1ccc(Cl)cc1)C(c1ccccc1)c1ccccn1 (configuration not stated)
dose: 25.0 mg/kg/injection, schedule: Q01DX009 (ip), vehicle: water
  T/C: 101 % of control
dose: 50.0 mg/kg/injection, schedule: Q01DX009 (ip), vehicle: water
  T/C: 109 % of control
dose: 100.0 mg/kg/injection, schedule: Q01DX009 (ip), vehicle: water
  T/C: 86 % of control
dose: 200.0 mg/kg/injection, schedule: Q01DX009 (ip), vehicle: water
  T/C: 109 % of control
dose: 400.0 mg/kg/injection, schedule: Q01DX009 (ip), vehicle: water
  T/C: 99 % of control

## CCCN(CCC)CCSC(=S)NCCOC
[9]
  T/C: 100 % of control
[3]
  T/C: 113 % of control

## Cc1cc(C)c(S(=O)(=O)OCCCl)c(C)c1
dose: 50.0 mg/kg/injection, schedule: Q01DX005 (ip), vehicle: Klucel (hydroxypropylcellulose) (HPC)
  T/C: 106 % of control
dose: 100.0 mg/kg/injection, schedule: Q01DX005 (ip), vehicle: Klucel (hydroxypropylcellulose) (HPC)
  T/C: 95 % of control

## COc1cc(NCCCC(C)N)c2ncccc2c1OC (configuration not stated)
dose: 6.25 mg/kg/injection, schedule: Q01DX009 (ip), vehicle: saline
  T/C: 101 % of control
[10]
  T/C: 109 % of control
[11]
  T/C: 116 % of control

## Cc1cnn(O)c(=NCCCl)n1
dose: 100.0 mg/kg/injection, schedule: Q04DX002 (ip), vehicle: saline with Tween-80
  T/C: 99 % of control
dose: 200.0 mg/kg/injection, schedule: Q04DX002 (ip), vehicle: saline with Tween-80
  T/C: 99 % of control
dose: 400.0 mg/kg/injection, schedule: Q04DX002 (ip), vehicle: saline with Tween-80
  T/C: 99 % of control

## NC(N)=NO
dose: 9.37 mg/kg/injection, schedule: Q01DX009 (ip), vehicle: saline
  T/C: 91 % of control
dose: 9.38 mg/kg/injection, schedule: Q01DX009 (ip), vehicle: saline
  T/C: 90 % of control
dose: 18.75 mg/kg/injection, schedule: Q01DX009 (ip), vehicle: saline
  T/C: 100 % of control and 103 % of control
dose: 37.5 mg/kg/injection, schedule: Q01DX009 (ip), vehicle: saline
  T/C: 112 % of control and 115 % of control
[14]
  T/C: 166 % of control and 168 % of control
dose: 300.0 mg/kg/injection, schedule: Q01DX009 (ip), vehicle: saline
  T/C: 158 % of control and 163 % of control
dose: 400.0 mg/kg/injection, schedule: Q01DX009 (ip), vehicle: saline
  T/C: 195 % of control and 198 % of control

## CN1C(=O)NC(C)(c2cccs2)C1=O (configuration not stated)
[15]
  T/C: 96 % of control
[4]
  T/C: 101 % of control
[6]
  T/C: 100 % of control
[8]
  T/C: 94 % of control

## CCOC(=O)/C=C(\C)C(C)=O
[3]
  T/C: 104 % of control
[4]
  T/C: 109 % of control
[5]
  T/C: 109 % of control
[6]
  T/C: 104 % of control
[7]
  T/C: 113 % of control
[8]
  T/C: 118 % of control

## O=C1c2ccccc2C(=O)N1c1c2ccccc2cc2ccccc12
[4]
  T/C: 100 % of control
[6]
  T/C: 104 % of control
[8]
  T/C: 100 % of control

## CC1(C)COP(OCC(F)(F)F)OC1
dose: 25.0 mg/kg/injection, schedule: Q01DX005 (ip), vehicle: saline with Tween-80
  T/C: 92 % of control
dose: 50.0 mg/kg/injection, schedule: Q01DX005 (ip), vehicle: saline with Tween-80
  T/C: 94 % of control
dose: 100.0 mg/kg/injection, schedule: Q01DX005 (ip), vehicle: saline with Tween-80
  T/C: 94 % of control

## COc1ccc2c(c1)CCN1C2CCN2C(=O)CCC21 (configuration not stated)
dose: 100.0 mg/kg/injection, schedule: Q01DX009 (ip), vehicle: saline sonified
  T/C: 104 % of control
dose: 200.0 mg/kg/injection, schedule: Q01DX009 (ip), vehicle: saline sonified
  T/C: 113 % of control
dose: 400.0 mg/kg/injection, schedule: Q01DX009 (ip), vehicle: saline sonified
  T/C: 100 % of control

## Cc1ccccc1NC=O
dose: 90.0 mg/kg/injection, schedule: Q01DX009 (ip), vehicle: saline with Tween-80
  T/C: 103 % of control
[4]
  T/C: 95 % of control
dose: 135.0 mg/kg/injection, schedule: Q01DX009 (ip), vehicle: saline with Tween-80
  T/C: 107 % of control
[5]
  T/C: 99 % of control
[6]
  T/C: 104 % of control
dose: 300.0 mg/kg/injection, schedule: Q01DX009 (ip), vehicle: saline with Tween-80
  T/C: 107 % of control
[7]
  T/C: 120 % of control
[8]
  T/C: 116 % of control

## COc1ccccc1NC(=S)N(C)C
[9]
  T/C: 100 % of control
[15]
  T/C: 113 % of control
[3]
  T/C: 105 % of control
[4]
  T/C: 109 % of control
[5]
  T/C: 110 % of control
[6]
  T/C: 104 % of control

## C[N+]1(C)C2CC(=O)CC1C1CC12 (configuration not stated) (tested in a mixture with another compound)
[11]
  T/C: 99 % of control
[12]
  T/C: 106 % of control
[13]
  T/C: 106 % of control
[14]
  T/C: 106 % of control
